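Exposure lasted 48 hours, with cells grown in 96-well plates and compounds tested at five concentrations. The concentration for 50% growth inhibition is given as GI50.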 Calls of active or inactive are those of the source. No stated cut-off is given here; in the data, active = GI50 up to about 1.1 µM and inactive = higher.
What was measured:
Assay in all cases: DTP human tumour cell line panel, 48 h
[1] = tested on: CAKI-1
[2] = tested on: HOP-62
[3] = tested on: KM12
[4] = tested on: LOX IMVI
[5] = tested on: MDA-N
[6] = tested on: Malme-3M
[7] = tested on: NCI-H226
[8] = tested on: NCI-H23
[9] = tested on: NCI-H522
[10] = tested on: NCI/ADR-RES
[11] = tested on: OVCAR-5
[12] = tested on: OVCAR-8
[13] = tested on: PC-3
[14] = tested on: RXF 393
[15] = tested on: SF-268
[16] = tested on: SNB-19
[17] = tested on: SR
[18] = tested on: UACC-62
[19] = tested on: UO-31
[20] = tested on: HL-60

SMILES | GI50 [1] | GI50 [2] | GI50 [3] | GI50 [4] | GI50 [5] | GI50 [6] | GI50 [7] | GI50 [8] | GI50 [9] | GI50 [10] | GI50 [11] | GI50 [12] | GI50 [13] | GI50 [14] | GI50 [15] | GI50 [16] | GI50 [17] | GI50 [18] | GI50 [19] | GI50 [20]
CN1C(=O)C(=CNc2ccccc2[N+](=O)[O-])C(=O)N(C)C1=O | > 100 µM (inactive) | > 100 µM (inactive) | > 100 µM (inactive) | > 100 µM (inactive) | > 100 µM (inactive) | > 100 µM (inactive) | > 100 µM (inactive) | > 100 µM (inactive) | > 100 µM (inactive) | > 100 µM (inactive) | > 100 µM (inactive) | > 100 µM (inactive) | > 100 µM (inactive) | > 100 µM (inactive) | > 100 µM (inactive) | > 100 µM (inactive) | > 100 µM (inactive) | > 100 µM (inactive) | > 100 µM (inactive) | 
Cc1nc2ccccc2c(=O)n1NC(=O)c1ccc(CS)cc1 |  | 18.8 µM (inactive) | 15.3 µM (inactive) | 0.145 µM (active) | > 10 µM (inactive) | 27.9 µM (inactive) | 2.84 µM (inactive) | 15.6 µM (inactive) | 12.3 µM (inactive) | 28.6 µM (inactive) | 34.5 µM (inactive) | 20.8 µM (inactive) | 1.74 µM (inactive) | > 10 µM (inactive) | 4.06 µM (inactive) | 38.2 µM (inactive) | 2.97 µM (inactive) | 6.58 µM (inactive) | 12.5 µM (inactive) | 2.7 µM (inactive)
C/C(=N\Nc1nc2ccccc2o1)c1cccc[n+]1[O-] | 2.69 µM (inactive) | 10.5 µM (inactive) | 23.2 µM (inactive) | 13.4 µM (inactive) | 60.7 µM (inactive) | 2.27 µM (inactive) | 45.7 µM (inactive) | 26.6 µM (inactive) | 3.86 µM (inactive) | 3.6 µM (inactive) | 11.4 µM (inactive) | 20 µM (inactive) | 5.36 µM (inactive) | 24.6 µM (inactive) | 19.1 µM (inactive) | 64.7 µM (inactive) | 6.19 µM (inactive) | 46.1 µM (inactive) | 4.45 µM (inactive) | 
O=C1CC2(c3ccccc3)ON=C(c3ccccc3)N2c2ccccc2N1 (stereo not given) |  | 78.7 µM (inactive) | 74 µM (inactive) | 66.4 µM (inactive) | 32.7 µM (inactive) | 44.5 µM (inactive) | > 100 µM (inactive) | 47.3 µM (inactive) | 41.6 µM (inactive) | 35.1 µM (inactive) | > 100 µM (inactive) | 77.1 µM (inactive) | 30.5 µM (inactive) | 87.1 µM (inactive) | 50.5 µM (inactive) | > 100 µM (inactive) | 35.6 µM (inactive) | 37.5 µM (inactive) | 32.4 µM (inactive) | 26.7 µM (inactive)
Nc1cc(OCc2ccccc2)c(OCc2ccccc2)cc1C=O |  | > 10 µM (inactive) | 23.3 µM (inactive) | 26.2 µM (inactive) | 39.5 µM (inactive) |  | 44 µM (inactive) | > 10 µM (inactive) | 0.141 µM (active) | 33 µM (inactive) | 55.2 µM (inactive) | 26.4 µM (inactive) | 35.1 µM (inactive) |  | 65.2 µM (inactive) | 32.9 µM (inactive) | 26.6 µM (inactive) |  |  | 15.2 µM (inactive)
CCN(CC)CCC1(C(=O)OC)SCCc2ccc(C)cc21 (stereo not given) | > 100 µM (inactive) | > 100 µM (inactive) | > 100 µM (inactive) | > 100 µM (inactive) | > 100 µM (inactive) | > 100 µM (inactive) | > 100 µM (inactive) | > 100 µM (inactive) | > 100 µM (inactive) | > 100 µM (inactive) | > 100 µM (inactive) | > 100 µM (inactive) | > 100 µM (inactive) | > 100 µM (inactive) | > 100 µM (inactive) | > 100 µM (inactive) | > 100 µM (inactive) | > 100 µM (inactive) | > 100 µM (inactive) | 
Brc1ccc(C2CC3(c4ccccc4)ON=C(c4ccccc4)N3c3ccccc3S2)cc1 (stereo not given) |  | > 100 µM (inactive) | > 100 µM (inactive) | > 100 µM (inactive) | > 100 µM (inactive) | > 100 µM (inactive) | > 100 µM (inactive) | > 100 µM (inactive) | > 100 µM (inactive) | > 100 µM (inactive) | > 100 µM (inactive) | > 100 µM (inactive) | > 100 µM (inactive) | > 100 µM (inactive) | > 100 µM (inactive) | > 100 µM (inactive) | 28.1 µM (inactive) | > 100 µM (inactive) | > 100 µM (inactive) | > 100 µM (inactive)
COC(=O)/C(C#N)=C(\Nc1ccccc1)N1CCCC1 | > 100 µM (inactive) | > 100 µM (inactive) |  | > 100 µM (inactive) | > 100 µM (inactive) | > 100 µM (inactive) | > 100 µM (inactive) | > 100 µM (inactive) | > 100 µM (inactive) | > 100 µM (inactive) | > 100 µM (inactive) | > 100 µM (inactive) | > 100 µM (inactive) | > 100 µM (inactive) | > 100 µM (inactive) | > 100 µM (inactive) | > 100 µM (inactive) |  | > 100 µM (inactive) | > 100 µM (inactive)
Cc1cc(N2CCCC2)c([N+](=O)[O-])cc1[N+](=O)[O-] | > 100 µM (inactive) |  | > 100 µM (inactive) | > 100 µM (inactive) | > 100 µM (inactive) | > 100 µM (inactive) | > 100 µM (inactive) | > 100 µM (inactive) | > 100 µM (inactive) | > 100 µM (inactive) |  | > 100 µM (inactive) | > 100 µM (inactive) | 80.9 µM (inactive) | > 100 µM (inactive) | > 100 µM (inactive) | > 100 µM (inactive) | > 100 µM (inactive) | > 100 µM (inactive) | > 100 µM (inactive)
CC(C)(C)OC(=O)[C@@H]1CCC(=S)N1Cc1ccccc1 | > 100 µM (inactive) |  | > 100 µM (inactive) | > 100 µM (inactive) | > 100 µM (inactive) | > 100 µM (inactive) | 60.1 µM (inactive) | 70.1 µM (inactive) | > 100 µM (inactive) | > 100 µM (inactive) | > 100 µM (inactive) | > 100 µM (inactive) | > 100 µM (inactive) | > 100 µM (inactive) |  | > 100 µM (inactive) | 76.9 µM (inactive) | > 100 µM (inactive) | 78.2 µM (inactive) | 
O=C(N/N=C1\C(=O)Nc2c(Cl)cc(Cl)cc21)C(=O)Nc1cccc(C(F)(F)F)c1 | > 100 µM (inactive) | > 100 µM (inactive) | > 100 µM (inactive) | > 100 µM (inactive) | 54 µM (inactive) | > 100 µM (inactive) | > 100 µM (inactive) | > 100 µM (inactive) |  | > 100 µM (inactive) | > 100 µM (inactive) | > 100 µM (inactive) | > 100 µM (inactive) | > 100 µM (inactive) |  | > 100 µM (inactive) | 34.4 µM (inactive) | > 100 µM (inactive) | > 100 µM (inactive) | 62.8 µM (inactive)

Source: ChEMBL document CHEMBL1201862, “PubChem BioAssay data set” (2004)
